Patent US11447466B2, “Substituted indole compounds useful as inhibitors of TLR7/8/9” (BRISTOL-MYERS SQUIBB COMPANY, priority 2017, dated 2022)

How the values were obtained:
Assay type in all cases: cell-based
human TLR7 = biological target: T1, human TLR7 (Homo sapiens, UniProt Q9NYK1); experiment: TLR7 inhibition reporter assay (HEK-Blue SEAP reporter, gardiquimod stimulation); conditions: HEK-Blue cells overexpressing human TLR7, SEAP reporter, gardiquimod 7.5 μM, 22 hour incubation
T1 construct: host or cells: HEK-Blue cells
T1 sequence (Q9NYK1 27-1049): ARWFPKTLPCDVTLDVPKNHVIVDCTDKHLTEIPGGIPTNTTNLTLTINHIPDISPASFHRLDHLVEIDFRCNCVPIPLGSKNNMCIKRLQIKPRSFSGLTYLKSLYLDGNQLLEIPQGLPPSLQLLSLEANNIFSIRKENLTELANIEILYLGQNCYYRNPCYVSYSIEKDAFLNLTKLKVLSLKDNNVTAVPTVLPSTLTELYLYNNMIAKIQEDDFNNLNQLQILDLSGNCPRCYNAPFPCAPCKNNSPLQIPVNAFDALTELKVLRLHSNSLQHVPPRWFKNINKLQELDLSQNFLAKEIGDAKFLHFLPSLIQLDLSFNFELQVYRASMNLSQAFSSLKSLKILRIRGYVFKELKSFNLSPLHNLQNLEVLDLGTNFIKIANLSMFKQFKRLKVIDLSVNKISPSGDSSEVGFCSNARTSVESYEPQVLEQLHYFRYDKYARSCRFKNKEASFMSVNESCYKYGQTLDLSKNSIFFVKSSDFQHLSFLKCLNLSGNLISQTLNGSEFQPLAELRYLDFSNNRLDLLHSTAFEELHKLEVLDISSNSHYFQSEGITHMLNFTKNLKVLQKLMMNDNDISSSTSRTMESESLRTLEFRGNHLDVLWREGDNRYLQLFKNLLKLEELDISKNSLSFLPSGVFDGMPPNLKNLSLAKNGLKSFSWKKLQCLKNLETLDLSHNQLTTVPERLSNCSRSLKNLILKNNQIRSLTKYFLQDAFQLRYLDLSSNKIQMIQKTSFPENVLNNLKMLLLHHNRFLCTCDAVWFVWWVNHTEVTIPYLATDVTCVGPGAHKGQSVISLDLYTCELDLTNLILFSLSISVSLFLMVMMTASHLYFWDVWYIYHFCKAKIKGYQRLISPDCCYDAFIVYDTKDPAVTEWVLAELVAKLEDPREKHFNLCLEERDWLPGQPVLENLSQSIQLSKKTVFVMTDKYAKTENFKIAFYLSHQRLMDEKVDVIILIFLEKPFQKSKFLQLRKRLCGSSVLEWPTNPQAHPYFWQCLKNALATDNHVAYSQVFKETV
Outline: (§1)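 Agonists used: gardiquimod 7.5 μM (TLR7), R848 15.9 μM (TLR8), ODN2006 5 nM (TLR9), added after 30 min room-temperature compound pre-treatment (0.05 nM–50 μM) of receptor-overexpressing HEK-Blue cells. SEAP reporter (NF-κB/AP-1 driven) read after 22 h at 37 °C; inhibition scaled between agonist+DMSO and reference-inhibitor wells.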

human TLR8 = biological target: T2, human TLR8 (Homo sapiens, UniProt Q9NR97); experiment: TLR8 inhibition reporter assay (HEK-Blue SEAP reporter, R848 stimulation); conditions: HEK-Blue cells overexpressing human TLR8, SEAP reporter, R848 15.9 μM, 22 hour incubation
T2 construct: host or cells: HEK-Blue cells
T2 sequence (Q9NR97 27-1041): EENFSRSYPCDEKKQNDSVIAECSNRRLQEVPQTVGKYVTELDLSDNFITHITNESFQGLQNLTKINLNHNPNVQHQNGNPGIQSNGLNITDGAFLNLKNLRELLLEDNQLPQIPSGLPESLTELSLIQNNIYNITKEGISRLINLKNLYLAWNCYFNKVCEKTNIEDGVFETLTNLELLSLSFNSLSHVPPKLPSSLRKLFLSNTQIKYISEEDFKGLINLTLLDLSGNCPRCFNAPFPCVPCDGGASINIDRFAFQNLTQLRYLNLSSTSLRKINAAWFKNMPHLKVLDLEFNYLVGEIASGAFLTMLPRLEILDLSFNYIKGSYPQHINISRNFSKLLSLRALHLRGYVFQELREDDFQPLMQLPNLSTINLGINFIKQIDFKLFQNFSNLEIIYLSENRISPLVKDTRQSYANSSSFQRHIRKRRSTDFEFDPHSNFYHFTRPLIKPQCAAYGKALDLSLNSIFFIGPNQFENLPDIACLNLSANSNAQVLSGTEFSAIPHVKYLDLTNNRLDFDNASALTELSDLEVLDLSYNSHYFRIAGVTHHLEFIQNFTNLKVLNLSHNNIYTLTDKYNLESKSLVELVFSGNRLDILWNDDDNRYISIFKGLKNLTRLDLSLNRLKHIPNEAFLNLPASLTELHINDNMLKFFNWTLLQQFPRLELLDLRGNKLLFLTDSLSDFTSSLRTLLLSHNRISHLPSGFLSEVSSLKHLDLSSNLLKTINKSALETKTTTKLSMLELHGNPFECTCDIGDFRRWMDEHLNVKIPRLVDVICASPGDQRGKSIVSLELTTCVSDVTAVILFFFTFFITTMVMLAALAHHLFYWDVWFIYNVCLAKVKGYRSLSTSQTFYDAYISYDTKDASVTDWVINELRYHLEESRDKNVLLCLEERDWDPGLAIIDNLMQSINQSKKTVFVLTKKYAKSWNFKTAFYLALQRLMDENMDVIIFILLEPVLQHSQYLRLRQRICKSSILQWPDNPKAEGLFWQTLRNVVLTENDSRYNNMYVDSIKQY
Outline: as §1

human TLR9 = biological target: T3, human TLR9 (Homo sapiens, UniProt Q9NR96); experiment: TLR9 inhibition reporter assay (HEK-Blue SEAP reporter, ODN2006 stimulation); conditions: HEK-Blue cells overexpressing human TLR9, SEAP reporter, ODN2006 5 nM, 22 hour incubation
T3 construct: host or cells: HEK-Blue cells
T3 sequence (Q9NR96 26-1032): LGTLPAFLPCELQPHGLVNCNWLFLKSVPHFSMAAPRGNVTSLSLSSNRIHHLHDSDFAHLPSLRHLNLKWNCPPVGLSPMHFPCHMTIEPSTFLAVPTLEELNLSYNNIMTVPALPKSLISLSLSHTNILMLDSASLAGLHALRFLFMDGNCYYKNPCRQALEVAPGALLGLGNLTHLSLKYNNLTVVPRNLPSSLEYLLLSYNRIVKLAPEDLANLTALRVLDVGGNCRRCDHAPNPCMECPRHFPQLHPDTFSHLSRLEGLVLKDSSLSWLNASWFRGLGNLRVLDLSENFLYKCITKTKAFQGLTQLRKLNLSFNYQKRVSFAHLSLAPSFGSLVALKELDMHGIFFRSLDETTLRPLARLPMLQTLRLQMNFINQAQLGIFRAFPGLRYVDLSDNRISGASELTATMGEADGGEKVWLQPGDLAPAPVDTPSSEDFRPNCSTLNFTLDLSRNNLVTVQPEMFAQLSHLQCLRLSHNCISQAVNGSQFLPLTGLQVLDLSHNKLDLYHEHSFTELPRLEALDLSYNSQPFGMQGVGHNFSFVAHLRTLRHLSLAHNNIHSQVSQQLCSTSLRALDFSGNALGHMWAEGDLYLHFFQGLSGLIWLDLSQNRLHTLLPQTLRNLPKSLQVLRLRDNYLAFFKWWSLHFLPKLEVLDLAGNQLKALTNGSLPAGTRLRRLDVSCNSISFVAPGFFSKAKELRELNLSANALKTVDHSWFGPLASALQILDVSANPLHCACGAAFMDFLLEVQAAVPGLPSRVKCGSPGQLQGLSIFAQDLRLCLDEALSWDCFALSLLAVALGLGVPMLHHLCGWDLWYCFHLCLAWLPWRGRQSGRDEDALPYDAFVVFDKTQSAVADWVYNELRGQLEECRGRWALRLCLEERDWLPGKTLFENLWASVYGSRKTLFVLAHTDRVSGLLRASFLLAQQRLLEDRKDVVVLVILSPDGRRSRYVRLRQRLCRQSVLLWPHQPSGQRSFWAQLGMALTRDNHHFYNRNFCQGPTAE
Outline: as §1

Row | Compound | IC50 (human TLR7) | IC50 (human TLR8) | IC50 (human TLR9)
1 | CNCCN1CCC(c2ccc3[nH]c(-c4ccc(=O)n(C)c4)c(C(C)C)c3c2)CC1 [Example 172, 5-(3-isopropyl-5-(1-(2-(methylamino)ethyl)piperidin-4-yl)-1H-indol-2-yl)-1-methylpyridin-2(1H)-one] | 29.9 nM | 6.9 nM | 151 nM
2 | CC(C)c1c(-c2ccc(=O)n(C)c2)[nH]c2ccc(C3CCN(C4COC4)CC3)cc12 [Example 175, 5-(3-isopropyl-5-(1-(oxetan-3-yl)piperidin-4-yl)-1H-indol-2-yl)-1-methylpyridin-2(1H)-one] | 275 nM | 87.5 nM | 15500 nM
3 | CC(C)c1c(-c2ccc(=O)n(C)c2)[nH]c2ccc(C3CCN(C4CCOC4)CC3)cc12 (stereo not drawn) [Example 177, 5-(3-isopropyl-5-(1-(tetrahydrofuran-3-yl)piperidin-4-yl)-1H-indol-2-yl)-1-methylpyridin-2(1H)-one] | 154 nM | 51.9 nM | 9210 nM
4 | CC(C)c1c(-c2ccc(=O)n(C)c2)[nH]c2ccc(C3CCN(C4COC4)CC3)cc12 [Example 179, 5-(3-isopropyl-5-(1-(oxetan-3-yl)piperidin-4-yl)-1H-indol-2-yl)-1-methylpyridin-2(1H)-one] | 95.1 nM | 28.8 nM | 3930 nM
5 | Cc1nc(-c2[nH]c3ccc(C4CCN(C(C)C)CC4)cc3c2C(C)C)cn(C)c1=O [Example 184, 5-(3-isopropyl-5-(1-isopropylpiperidin-4-yl)-1H-indol-2-yl)-1,3-dimethylpyrazin-2(1H)-one] | 71.8 nM | 34.2 nM | 2120 nM
6 | Cc1nc(-c2[nH]c3ccc(C4CCN(C5CCOCC5)CC4)cc3c2C(C)C)cn(C)c1=O [Example 185, 5-(3-isopropyl-5-(1-(tetrahydro-2H-pyran-4-yl)piperidin-4-yl)-1H-indol-2-yl)-1,3-dimethylpyrazin-2(1H)-one] | 61.3 nM | 19 nM | 4320 nM

These reach a lower IC50 (human TLR7). Values come first.

Row | IC50 (human TLR7) | IC50 (human TLR8) | IC50 (human TLR9) | Compound
7 | 19.8 nM | 14.4 nM | 2080 nM | CC(C)c1c(-c2cc(-c3ccccc3)c(=O)n(C)c2)[nH]c2ccc(C3CCN(CC(=O)N(C)C)CC3)cc12 [Example 170, 2-(4-(3-isopropyl-2-(1-methyl-6-oxo-5-phenyl-1,6-dihydropyridin-3-yl)-1H-indol-5-yl)piperidin-1-yl)-N,N-dimethylacetamide]
8 | 5.1 nM | 10.4 nM | 25200 nM | Cc1cc(-c2[nH]c3ccc(C4CCN(C5COC5)CC4)cc3c2C(C)C)cn(C)c1=O [Example 171, 5-(3-isopropyl-5-(1-(oxetan-3-yl)piperidin-4-yl)-1H-indol-2-yl)-1,3-dimethylpyridin-2(1H)-one]
9 | 15.7 nM | 44.8 nM | ≥ 50000 nM | CC(=O)N1CC(N2CCC(c3ccc4[nH]c(-c5cn(C)c(=O)c(Cl)c5C)c(C(C)C)c4c3)CC2)C1 [Example 174, 5-(5-(1-(1-acetylazetidin-3-yl)piperidin-4-yl)-3-isopropyl-1H-indol-2-yl)-3-chloro-1,4-dimethylpyridin-2(1H)-one]
10 | 1.3 nM | 1.3 nM | 177 nM | CNCCN1CCC(c2ccc3[nH]c(-c4cc(C)c(=O)n(C)c4)c(C(C)C)c3c2)CC1 [Example 176, 5-(3-isopropyl-5-(1-(2-(methylamino)ethyl)piperidin-4-yl)-1H-indol-2-yl)-1,3-dimethylpyridin-2(1H)-one]
11 | 3.9 nM | 3.2 nM | 7090 nM | Cc1cc(-c2[nH]c3ccc(C4CCN(C5CCOCC5)CC4)cc3c2C(C)C)cn(C)c1=O [Example 178, 5-(3-isopropyl-5-(1-(tetrahydro-2H-pyran-4-yl)piperidin-4-yl)-1H-indol-2-yl)-1,3-dimethylpyridin-2(1H)-one]
12 | 7 nM | 8.2 nM | 5750 nM | Cc1cc(-c2[nH]c3ccc(C4CCN(C5CCOC5)CC4)cc3c2C(C)C)cn(C)c1=O (stereo not drawn) [Example 180, 5-(3-isopropyl-5-(1-(tetrahydrofuran-3-yl)piperidin-4-yl)-1H-indol-2-yl)-1,3-dimethylpyridin-2(1H)-one]
13 | 2 nM | 8.5 nM | 13500 nM | Cc1cc(-c2[nH]c3ccc(C4CCN(C)CC4)cc3c2C(C)C)cn(C)c1=O [Example 181, 5-(3-isopropyl-5-(1-methylpiperidin-4-yl)-1H-indol-2-yl)-1,3-dimethylpyridin-2(1H)-one]
14 | 5.9 nM | 7.3 nM | 5550 nM | Cc1cc(-c2[nH]c3ccc(C4CCN(C(C)C)CC4)cc3c2C(C)C)cn(C)c1=O [Example 182, 5-(3-isopropyl-5-(1-isopropylpiperidin-4-yl)-1H-indol-2-yl)-1,3-dimethylpyridin-2(1H)-one]
15 | 28.5 nM | 31.4 nM | 9650 nM | Cc1nc(-c2[nH]c3ccc(C4CCN(C)CC4)cc3c2C(C)C)cn(C)c1=O [Example 183, 5-(3-isopropyl-5-(1-methylpiperidin-4-yl)-1H-indol-2-yl)-1,3-dimethylpyrazin-2(1H)-one]
